Test results from ChEMBL document CHEMBL1201862, “PubChem BioAssay data set” (2004).
The source made the active and inactive calls.

Columns and labels:
[1] = Artemis endonuclease inhibitor potency, dose response, biochemical, fluorescence intensity (AID 720701); assay type: functional;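 also: Artemis endonuclease enzyme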
Ephrin type-A receptor 4 = Ephrin type-A receptor 4 (Mus musculus, UniProt Q03137); test: inhibitors of EphA4 binding to KYL peptide, primary screen, biochemical, colorimetric, mouse EphA4 (AID 689); assay type: functional
[2] = molecular target: T1, Heat shock factor protein 1 (Mus musculus, UniProt P38532); test: HSF1 potentiators in luciferase reporter cells, confirmation, cell-based, NIH3T3, luminescence, dose retest (AID 435004); assay type: functional;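 also: stress induced by proteasome inhibitor MG132 added 30 min after compound; luciferase reporter driven by HSF1 response element in NIH3T3 cells; actives raise luminescence as potentiators of the MG132 stress response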
T1 sequence (P38532 whole entry): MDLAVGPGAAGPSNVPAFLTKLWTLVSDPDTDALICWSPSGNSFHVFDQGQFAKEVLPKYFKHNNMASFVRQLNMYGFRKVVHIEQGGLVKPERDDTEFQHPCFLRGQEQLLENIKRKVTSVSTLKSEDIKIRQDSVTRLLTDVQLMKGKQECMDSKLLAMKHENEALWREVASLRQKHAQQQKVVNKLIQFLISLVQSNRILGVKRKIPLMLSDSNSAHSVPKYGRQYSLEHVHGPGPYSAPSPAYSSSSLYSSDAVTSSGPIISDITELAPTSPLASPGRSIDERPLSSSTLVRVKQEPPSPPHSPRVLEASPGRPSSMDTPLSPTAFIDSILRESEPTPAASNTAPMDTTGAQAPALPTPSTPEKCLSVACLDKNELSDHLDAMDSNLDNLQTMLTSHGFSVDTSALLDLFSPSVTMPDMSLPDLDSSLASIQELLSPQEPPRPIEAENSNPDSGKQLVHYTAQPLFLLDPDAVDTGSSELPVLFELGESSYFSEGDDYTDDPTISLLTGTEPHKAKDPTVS

[3] = molecular target: Protein-tyrosine kinase 2-beta (Homo sapiens, UniProt Q14289);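 also: potency of inhibitors of PYK2 kinase phosphorylation of poly-GT substrate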
Cytochrome P450 2D6 [4] = molecular target: T2, Cytochrome P450 2D6 (Homo sapiens, UniProt P10635)
Cytochrome P450 2D6 [5] = molecular target: T2, Cytochrome P450 2D6; test: qHTS Assay for Inhibitors and Substrates of Cytochrome P450 2D6. [Related pubchem assays: 410 ]; assay type: ADME; conditions: read-out: Potency
Cytochrome P450 2C19 = Cytochrome P450 2C19 (Homo sapiens, UniProt P33261); test: Cytochrome panel assay with activity outcomes. Panel member name: p450-cyp2c19 Compounds with AC50 equal or less than 10 uM are considered active; assay type: functional; conditions: read-out: AC50
[6] = molecular target: Peroxisome proliferator-activated receptor gamma/Nuclear receptor coactivator 1 (Homo sapiens, UniProt P37231); assay type: functional;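 also: agonist potency as compounds enhance coactivator SRC-1 recruitment to PPARgamma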
Streptokinase A = molecular target: T3, Streptokinase A (Streptococcus pyogenes serotype M1, UniProt P10520); test: S. pyogenes streptokinase expression inhibitors, potency, dose response, plasminogen activation absorbance, OD405 (AID 1914); assay type: functional, Streptococcus pyogenes M1 GAS;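 also: secreted streptokinase activity via plasminogen activation per viability signal from cell pellet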
T3 sequence (P10520 whole entry): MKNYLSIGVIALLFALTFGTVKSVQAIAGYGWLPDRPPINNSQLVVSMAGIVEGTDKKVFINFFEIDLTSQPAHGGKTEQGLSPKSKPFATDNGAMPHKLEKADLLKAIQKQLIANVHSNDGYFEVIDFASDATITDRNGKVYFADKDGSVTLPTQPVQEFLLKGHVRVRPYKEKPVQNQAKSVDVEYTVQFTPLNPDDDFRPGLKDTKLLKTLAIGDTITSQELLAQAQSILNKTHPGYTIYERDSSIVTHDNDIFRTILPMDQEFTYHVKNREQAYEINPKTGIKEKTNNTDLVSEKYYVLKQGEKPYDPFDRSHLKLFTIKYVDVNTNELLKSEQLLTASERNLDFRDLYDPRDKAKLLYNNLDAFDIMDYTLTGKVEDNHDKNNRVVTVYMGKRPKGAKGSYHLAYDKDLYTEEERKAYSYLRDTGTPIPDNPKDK

[7] = molecular target: Peroxisome proliferator-activated receptor gamma/Nuclear receptor coactivator 3 (Homo sapiens, UniProt P37231); assay type: functional;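 also: agonist potency for raising coactivator recruitment to the receptor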
Streptococcus = test: Group A Streptococcus viability loss, dose response, counter-screen for streptokinase expression inhibitor project, luminescence, BacTiterGlo (AID 1915); assay type: functional, organism-based;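 also: potency for reduction of bacterial viability or growth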
[8] = cytotoxicity toward NIH3T3 fibroblasts, dose response, counter-screen, cell-based, ATP luminescence, mouse fibroblasts (AID 2010); assay type: functional;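 also: cells exposed to compound for about 90 hours before reading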
[9] = tested on: Streptococcus sp. 'group A'; test: growth inhibition of control SK(-) GAS strain, dose response, counter-screen for streptokinase expression inhibitor project, luminescence, kanamycin, BacTiterGlo, confirmation (AID 1900); assay type: functional, organism-based
[10] = inhibitors of intracellular T. cruzi replication, confirmation, NIH3T3 host cells, beta-gal luminescence (AID 2044); assay type: functional, cell-based;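 also: intracellular parasites grown in NIH/3T3 mouse fibroblasts as host cells; luminescent beta-galactosidase reporter signal from transgenic T. cruzi replicating inside host cells; inhibitors lower the luminescence signal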
[11] = molecular target: Peroxisome proliferator-activated receptor gamma/Nuclear receptor coactivator 2 (Homo sapiens, UniProt P37231); assay type: functional;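 also: agonist potency for raising coactivator recruitment to the receptor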
Kallikrein-7 = Kallikrein-7 (Homo sapiens, UniProt P49862); test: Fluorescence Intensity-based biochemical primary high throughput dose response assay to identify activators of kallikrein-7 (K7) zymogen.
H9c2 = test: cells; assay type: functional, cell-based; conditions: Rattus norvegicus, H9c2, Myocardium
Estrogen receptor beta [12] = molecular target: T4, Estrogen receptor beta (Homo sapiens, UniProt Q92731);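 also: recombinant ER-beta bound to coactivator SRC1 peptide in presence of estradiol agonist; inhibitors block coactivator peptide binding and lower the FRET signal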
Estrogen receptor beta [13] = molecular target: T4, Estrogen receptor beta; test: ERβ–SRC-3 coactivator interaction inhibitors, confirmation, orthogonal assay, biochemical, ELISA, streptavidin-HRP readout (AID 1060)
[14] = molecular target: T5, Oxysterols receptor LXR-beta (Homo sapiens, UniProt P55055); assay type: functional, cell-based;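 also: Cell-based luminescence dose-response assay of agonist activity at LXR, run as a confirmatory counterscreen to a daf-12 agonist screen; HEK293 cells with Gal4-LXR fusion and GAL4-driven luciferase reporter; agonist potency from rising luciferase signal of a Gal4-LXR reporter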
T5 sequence (P55055 whole entry): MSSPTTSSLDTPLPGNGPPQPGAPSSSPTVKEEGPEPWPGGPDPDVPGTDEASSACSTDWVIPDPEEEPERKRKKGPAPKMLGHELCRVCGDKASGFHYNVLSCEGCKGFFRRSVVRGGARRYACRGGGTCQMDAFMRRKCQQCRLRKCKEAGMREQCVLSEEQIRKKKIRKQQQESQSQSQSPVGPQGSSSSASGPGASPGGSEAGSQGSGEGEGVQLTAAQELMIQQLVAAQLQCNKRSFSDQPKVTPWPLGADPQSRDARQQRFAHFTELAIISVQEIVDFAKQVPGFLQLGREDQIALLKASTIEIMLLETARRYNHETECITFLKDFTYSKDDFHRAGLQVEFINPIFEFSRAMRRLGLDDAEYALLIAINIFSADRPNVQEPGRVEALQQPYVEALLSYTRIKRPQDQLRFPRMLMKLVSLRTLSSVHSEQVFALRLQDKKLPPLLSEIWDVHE

T2 sequence (P10635 whole entry): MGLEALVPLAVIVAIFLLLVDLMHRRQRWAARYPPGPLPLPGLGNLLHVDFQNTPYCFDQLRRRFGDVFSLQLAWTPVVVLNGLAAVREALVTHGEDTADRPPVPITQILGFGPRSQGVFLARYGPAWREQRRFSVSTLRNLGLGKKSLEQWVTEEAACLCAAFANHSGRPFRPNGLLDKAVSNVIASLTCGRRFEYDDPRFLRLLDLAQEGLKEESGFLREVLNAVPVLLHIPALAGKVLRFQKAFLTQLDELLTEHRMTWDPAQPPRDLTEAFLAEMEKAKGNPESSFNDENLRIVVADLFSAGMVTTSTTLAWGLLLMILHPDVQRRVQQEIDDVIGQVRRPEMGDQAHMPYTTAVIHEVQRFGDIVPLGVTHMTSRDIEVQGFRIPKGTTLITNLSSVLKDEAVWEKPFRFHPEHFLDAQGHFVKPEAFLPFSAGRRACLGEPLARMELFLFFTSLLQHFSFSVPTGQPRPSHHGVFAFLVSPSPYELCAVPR
T4 sequence (Q92731 whole entry): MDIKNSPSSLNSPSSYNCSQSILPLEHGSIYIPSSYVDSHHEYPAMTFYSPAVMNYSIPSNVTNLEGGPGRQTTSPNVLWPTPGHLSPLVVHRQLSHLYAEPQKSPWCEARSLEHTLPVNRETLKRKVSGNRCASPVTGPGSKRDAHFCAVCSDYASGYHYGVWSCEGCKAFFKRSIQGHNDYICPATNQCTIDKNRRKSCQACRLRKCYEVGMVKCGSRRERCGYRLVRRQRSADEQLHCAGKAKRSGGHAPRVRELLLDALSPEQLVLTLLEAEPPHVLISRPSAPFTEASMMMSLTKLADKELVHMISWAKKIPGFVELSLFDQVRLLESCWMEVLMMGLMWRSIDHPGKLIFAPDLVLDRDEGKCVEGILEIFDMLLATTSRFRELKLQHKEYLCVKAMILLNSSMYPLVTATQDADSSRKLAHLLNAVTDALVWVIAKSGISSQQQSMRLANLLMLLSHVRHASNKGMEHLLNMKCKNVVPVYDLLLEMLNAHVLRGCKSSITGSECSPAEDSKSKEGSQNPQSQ
Peroxisome proliferator-activated receptor gamma/Nuclear receptor coactivator 3, sequence (P37231 whole entry): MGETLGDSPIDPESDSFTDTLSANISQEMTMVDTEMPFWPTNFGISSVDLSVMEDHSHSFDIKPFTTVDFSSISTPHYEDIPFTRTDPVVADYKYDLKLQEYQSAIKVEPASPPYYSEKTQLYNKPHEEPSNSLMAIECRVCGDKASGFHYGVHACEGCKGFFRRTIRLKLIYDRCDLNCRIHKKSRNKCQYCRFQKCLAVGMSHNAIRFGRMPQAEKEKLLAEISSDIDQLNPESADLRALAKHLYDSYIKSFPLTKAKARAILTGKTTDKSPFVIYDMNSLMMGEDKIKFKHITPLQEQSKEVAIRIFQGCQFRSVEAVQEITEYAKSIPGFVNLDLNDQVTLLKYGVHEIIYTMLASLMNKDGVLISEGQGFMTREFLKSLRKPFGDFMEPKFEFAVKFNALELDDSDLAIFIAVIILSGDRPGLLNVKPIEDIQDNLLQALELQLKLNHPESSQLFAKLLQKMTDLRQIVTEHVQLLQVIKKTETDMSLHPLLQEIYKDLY
Peroxisome proliferator-activated receptor gamma/Nuclear receptor coactivator 3, sequence (Q9Y6Q9 whole entry, further chain): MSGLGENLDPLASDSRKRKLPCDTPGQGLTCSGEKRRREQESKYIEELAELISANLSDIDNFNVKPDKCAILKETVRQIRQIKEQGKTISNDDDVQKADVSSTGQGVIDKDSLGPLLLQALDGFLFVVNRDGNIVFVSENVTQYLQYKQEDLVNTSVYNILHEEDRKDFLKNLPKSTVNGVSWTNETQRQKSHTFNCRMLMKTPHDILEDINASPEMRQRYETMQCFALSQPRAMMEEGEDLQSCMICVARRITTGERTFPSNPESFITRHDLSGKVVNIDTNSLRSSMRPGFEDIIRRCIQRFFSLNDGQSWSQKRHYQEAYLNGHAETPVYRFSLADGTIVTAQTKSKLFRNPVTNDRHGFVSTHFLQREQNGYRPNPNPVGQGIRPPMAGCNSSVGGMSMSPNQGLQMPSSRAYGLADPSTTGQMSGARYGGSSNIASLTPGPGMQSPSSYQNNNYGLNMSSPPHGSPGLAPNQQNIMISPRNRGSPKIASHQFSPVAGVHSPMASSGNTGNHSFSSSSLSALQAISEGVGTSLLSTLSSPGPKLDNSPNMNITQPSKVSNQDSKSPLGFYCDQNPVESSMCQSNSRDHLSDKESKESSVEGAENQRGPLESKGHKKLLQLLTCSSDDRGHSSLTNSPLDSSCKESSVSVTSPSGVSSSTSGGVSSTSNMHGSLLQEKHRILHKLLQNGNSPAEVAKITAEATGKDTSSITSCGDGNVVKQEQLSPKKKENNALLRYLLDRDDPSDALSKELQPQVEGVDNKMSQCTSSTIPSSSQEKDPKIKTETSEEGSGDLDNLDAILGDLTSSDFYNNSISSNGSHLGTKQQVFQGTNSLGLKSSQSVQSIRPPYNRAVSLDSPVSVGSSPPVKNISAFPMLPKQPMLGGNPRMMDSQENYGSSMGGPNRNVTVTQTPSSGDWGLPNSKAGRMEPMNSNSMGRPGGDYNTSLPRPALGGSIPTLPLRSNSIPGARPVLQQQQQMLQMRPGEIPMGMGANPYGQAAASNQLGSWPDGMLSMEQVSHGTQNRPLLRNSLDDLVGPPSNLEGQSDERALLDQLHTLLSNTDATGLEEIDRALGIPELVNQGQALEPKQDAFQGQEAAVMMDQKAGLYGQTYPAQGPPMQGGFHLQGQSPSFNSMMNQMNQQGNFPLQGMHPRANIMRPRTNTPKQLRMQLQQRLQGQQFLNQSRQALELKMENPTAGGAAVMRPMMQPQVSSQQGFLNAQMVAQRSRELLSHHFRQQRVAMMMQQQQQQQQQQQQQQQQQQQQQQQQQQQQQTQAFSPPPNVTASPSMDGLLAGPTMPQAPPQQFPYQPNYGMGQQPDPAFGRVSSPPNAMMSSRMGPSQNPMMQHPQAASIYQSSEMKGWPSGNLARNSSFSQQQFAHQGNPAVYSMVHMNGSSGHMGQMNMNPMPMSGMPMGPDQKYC
Peroxisome proliferator-activated receptor gamma/Nuclear receptor coactivator 1, sequence (P37231 whole entry): as the sequence (P37231 whole entry) above
Peroxisome proliferator-activated receptor gamma/Nuclear receptor coactivator 1, sequence (Q15788 whole entry, further chain): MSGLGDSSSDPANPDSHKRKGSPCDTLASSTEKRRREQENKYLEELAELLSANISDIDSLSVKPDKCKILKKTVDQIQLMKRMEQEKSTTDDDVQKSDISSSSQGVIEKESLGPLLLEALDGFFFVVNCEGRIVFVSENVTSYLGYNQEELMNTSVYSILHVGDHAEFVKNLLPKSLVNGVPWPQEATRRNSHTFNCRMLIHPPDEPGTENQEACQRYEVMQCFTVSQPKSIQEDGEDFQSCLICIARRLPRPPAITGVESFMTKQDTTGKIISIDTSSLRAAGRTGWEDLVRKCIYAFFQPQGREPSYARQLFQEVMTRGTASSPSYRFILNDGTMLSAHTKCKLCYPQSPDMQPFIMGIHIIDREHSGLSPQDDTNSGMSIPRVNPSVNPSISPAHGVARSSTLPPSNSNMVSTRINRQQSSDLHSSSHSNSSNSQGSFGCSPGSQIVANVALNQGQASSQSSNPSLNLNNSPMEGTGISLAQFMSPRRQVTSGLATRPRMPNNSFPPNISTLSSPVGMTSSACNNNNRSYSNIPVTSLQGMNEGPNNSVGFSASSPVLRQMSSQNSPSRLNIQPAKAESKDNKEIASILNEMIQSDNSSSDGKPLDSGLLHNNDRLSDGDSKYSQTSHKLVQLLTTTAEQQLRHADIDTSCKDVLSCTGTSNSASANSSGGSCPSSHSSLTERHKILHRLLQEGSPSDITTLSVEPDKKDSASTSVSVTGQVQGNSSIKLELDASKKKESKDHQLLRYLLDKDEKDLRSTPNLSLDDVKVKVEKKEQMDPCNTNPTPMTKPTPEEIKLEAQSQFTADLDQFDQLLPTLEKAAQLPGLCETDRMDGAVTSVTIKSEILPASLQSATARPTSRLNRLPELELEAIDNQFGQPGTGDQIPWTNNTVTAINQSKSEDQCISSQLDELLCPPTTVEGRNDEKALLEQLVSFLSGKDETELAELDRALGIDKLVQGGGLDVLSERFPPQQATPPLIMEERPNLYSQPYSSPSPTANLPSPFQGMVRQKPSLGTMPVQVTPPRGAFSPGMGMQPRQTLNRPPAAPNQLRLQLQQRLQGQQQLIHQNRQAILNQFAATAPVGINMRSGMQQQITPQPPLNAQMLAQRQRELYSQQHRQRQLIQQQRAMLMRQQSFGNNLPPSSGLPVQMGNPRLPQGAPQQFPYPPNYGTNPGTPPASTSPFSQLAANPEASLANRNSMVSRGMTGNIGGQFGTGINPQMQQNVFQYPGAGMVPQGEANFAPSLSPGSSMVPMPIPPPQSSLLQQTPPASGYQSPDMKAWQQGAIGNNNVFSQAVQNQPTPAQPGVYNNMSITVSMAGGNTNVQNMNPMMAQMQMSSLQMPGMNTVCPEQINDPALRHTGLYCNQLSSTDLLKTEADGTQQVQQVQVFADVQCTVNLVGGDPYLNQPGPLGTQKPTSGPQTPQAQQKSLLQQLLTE

## CCSC1=N/C(=C\c2ccc(-c3ccccc3[N+](=O)[O-])o2)C(=O)S1
[1]
  IC50: 0.967 µM (active)
Ephrin type-A receptor 4
  IC50: > 100 µM (not active)

## CC(C)(C)c1cc(/C=N/NC(=O)Cc2nc3ccccc3[nH]2)cc(C(C)(C)C)c1O
[1]
  IC50: > 20 µM (inactive)

## CCOC(=O)c1sc2c(c1C)C(c1cccs1)C1=C(O)CCCC1=N2 (configuration not stated)
[2]
  EC50: 80.5 µM (active)
[3]
  IC50: > 69.5 µM (not active)

## Cc1cc2nc3c(=O)[nH]c(=O)nc-3n(CC(O)C(O)C(O)CO)c2cc1C (configuration not stated) [RIBOFLAVIN]
Cytochrome P450 2D6 [4]
  AC50: 12.6 µM (inconclusive)
Cytochrome P450 2D6 [5]
  AC50: 31.6 µM (inconclusive)
Cytochrome P450 2C19
  AC50: 6.31 µM (inconclusive)

## O=C(CCCN1CCC2(CC1)C(=O)N(CCc1ccc(N=C=S)cc1)CN2c1ccccc1)c1ccc(F)cc1
Cytochrome P450 2D6 [5]
  AC50: 15.8 µM (inconclusive)

## CCC(=O)NC(=S)Nc1ccc(NC(=S)NC(=O)c2ccccc2)cc1
[6]
  EC50: > 79.4 µM (not active)
Streptokinase A
  EC50: > 150 µM (not active)
[7]
  EC50: > 79.4 µM (not active)
Streptococcus
  EC50: 38 µM (active)
[8]
  EC50: > 60 µM (not active)
[9]
  EC50: 1.23 µM (active)
[10]
  EC50: 0.553 µM (active)
[11]
  EC50: > 79.4 µM (not active)

## CCC(NC(=O)CCc1c(C)c2cc3c(C)c(C)oc3cc2oc1=O)C(=O)N[C@@H](Cc1ccccc1)C(=O)O (some centres not stated)
Kallikrein-7
  EC50: > 69.5 µM (inactive)

## N#CC(c1nc2ccccc2nc1N1CCCC1)S(=O)(=O)c1cccs1 (configuration not stated)
Ephrin type-A receptor 4
  IC50: > 100 µM (not active)
H9c2
  IC50: > 79 µM (inactive)

## Cc1csc(C(C#N)C(=O)c2ccncc2)n1 (configuration not stated)
[6]
  EC50: > 79.4 µM (not active)
[7]
  EC50: > 79.4 µM (not active)
Estrogen receptor beta [12]
  IC50: 13.9 µM (active)
[11]
  EC50: > 79.4 µM (not active)
Estrogen receptor beta [13]
  IC50: > 109 µM (not active)

## Cc1ccc(-c2nc(O)c3sccc3n2)cc1
[14]
  EC50: > 67.5 µM (inactive)
cells
  EC50: > 67.5 µM (inactive)
